Laboratory results as given in patent US12180084B2, “Cerium (III) carbonate formulations” (THE REGENTS OF THE UNIVERSITY OF CALIFORNIA, priority 2019, dated 2024).

What was measured:
[1] = CR dye photodegradation in ZnO-based sunscreen film (Neutrogena Sheer Zinc Face Mineral Sunscreen SPF 50); details: 1.5 wt. % added agent relative to sunscreen weight
Procedure: Therefore, the extent of photodegradation upon UV irradiation in a photoreactor, using the same setup and ZnO-based sunscreen formulation (Neutrogena Sheer Zinc Face™ Mineral Sunscreen SPF 50) as in Examples 7.1 and 7.2 above, except now using Congo Red (CR) rather than MB dye was investigated. For this investigation, a homogeneous composite mixture was prepared by mixing the ZnO-based (Neutrogena Sheer Zinc Face™ Mineral Sunscreen SPF 50) sunscreen, and CR dye in the similar way as described in Example 7.1 for MB, except now using 10^−3 M CR dye (0.6 mL) instead of 10^−3 M MB dye (0.6 mL). Similarly, a composite sunscreen mixture comprising UV-protecting agent was prepared with synthesized Ce2(CO3)3·6H2O (1.5 wt. % relative to sunscreen weight), following the procedure of Example 7.2. The investigation of CR dye photodegradation in sunscreen films, was also conducted in similar fashion as described in Examples 7.1 for the case of no added UV-protecting agent and 7.2 for the case of added Ce2(CO3)3·6H2O UV-protecting agent, except for the following changes. First, the CR sunscreen films were salmon colored on the same filter paper, and the duration of UV-irradiation in the photoreactor was 5 h instead of 4 h. Second, 2 mL of N,N-dimethylformamide was used for CR dye extraction, instead of 2 mL of ethanol as used for MB dye extraction. […]

[2] = MB dye photodegradation in octacrylene-based sunscreen film (Blue Lizard Kids Australian Sunscreen SPF 30+); details: 1.5 wt. % added agent
Procedure: Films on filter paper were fabricated and photoreactor experiments were conducted exactly the same way as described in Example 7.2, using MB dye, except UV irradiation in the photoreactor was conducted for a period of 4 h. These films contained either no UV-protecting agent, or 1.5 wt. % of Ce2(CO3)3·6H2O that was synthesized according to Example 3. The slurry formulation for film fabrication, photoexposure to UV light, and MB dye extraction in ethanol were performed similar to Example 7.2, except Blue Lizard® Kids Australian Sunscreen SPF 30+ was used.
A 30 nm blue-shift of the wavelength of the absorbance maximum was observed (from 654 nm initially to 624 nm after 4 h of UV irradiation in the photoreactor). The degree of photodegradation was calculated by UV-visible spectrophotometry, by assuming the same extinction coefficient at 654 nm before UV irradiation and 624 nm after 4 h of UV irradiation in the photoreactor. Data in FIG. 25A corresponds to 64% MB dye photodegradation.

RBL-2H3 rat-cell line = assay: Toxicity of mammalian cells to cerium carbonate, microscopy imaging; assay type: cell-based; details: 10 microliter of 1 mg in 1 mL water dispersion, imaging 20 min after addition
Procedure: A RBL-2H3 rat-cell line was used from the Berkeley cell-culture facility. […] Prior to microscopy imaging, cells were stored under 5% CO2 in air atmosphere at 37° C. A 10 microliter aliquot of an aqueous dispersion comprising 1 mg of cerium carbonate Ce2(CO3)3·6H2O (micron sized) in 1 mL of deionized water was added to the RBL-2H3 cells in the Petri dish. Microscopy imaging of the cells was performed before and 20 min after addition of the cerium carbonate. […] This viability of the cells appears to be similar both before and after treatment with cerium carbonate Ce2(CO3)3·6H2O (micron sized).

[3] = CR dye photodegradation in TiO2-based sunscreen film (Neutrogena Broad Spectrum Mineral Sunscreen SPF 60+)
Procedure: Films on filter paper were fabricated and photoreactor experiments were conducted exactly the same way as described in Example 7.3, using CR dye, except UV irradiation in the photoreactor was conducted for a period of 4 h. These films contained either no UV-protecting agent, 3.0 wt. % of Ce2(CO3)3·6H2O that was synthesized according to Example 3, 3.0 wt. % of commercial Ce2(CO3)3·xH2O (Acros Organics), or 3.0 wt. % of ZnO (NANOBYK-3840). […] Upon adding 3 wt. % of Ce2(CO3)3·6H2O synthesized according to Example 3 to the sunscreen formulation, a decrease in the amount of CR dye photodegradation to 15±1% is observed. […] When cerium carbonate consisting of Ce2(CO3)3·xH2O from Acros Organics is instead used in place of Ce2(CO3)3·6H2O synthesized according to Example 3, photoprotection with 24±2% CR dye photodegradation is observed. The properties of Ce2(CO3)3·xH2O from Acros Organics have been ascribed in Example 4, and these aspects are borne out in conjunction with sunscreen-based formulations here as well. When instead of cerium carbonate ZnO (NANOBYK-3840) is used as a UV-protecting agent, less effect on CR dye photodegradation is observed. This is a similar outcome to observations with MB dye and ZnO-based sunscreen formulation in Example 7.2.
The amount of Ce2(CO3)3·6H2O synthesized according to Example 3 that was incorporated into the TiO2-based sunscreen was increased to 5.0 wt. %, and results are shown in FIGS. 23A-23B and are summarized in Table 4. […] There is a slight diminishing return for adding Ce2(CO3)3·6H2O both here and in Example 7.2, but the effect of increasing Ce2(CO3)3·6H2O on organic-molecule photoprotection is much more pronounced than in the case of ZnO.

- % of CR dye photodegradation after 5 h of UV irradiation in photoreactor [1]: 9±1%
- % of CR dye photodegradation after 5 h of UV irradiation in photoreactor ([1]; listed as Ce2(CO3)3•6H2O synthesized according to Example 3): 9 ± 1%
- MB dye degradation after 4 h of UV irradiation in photoreactor [2]: 45%
- % of CR dye photodegradation after 4 h of UV irradiation in photoreactor ([3]; 3.0 wt. % added agent relative to sunscreen weight, listed as Ce2(CO3)3·6H2O synthesized according to Example 3): 15±1%
- % of CR dye photodegradation after 4 h of UV irradiation in photoreactor ([3]; 3.0 wt. % added agent relative to sunscreen weight, listed as Ce2(CO3)3•6H2O synthesized according to Example 3): 15 ± 1%
- % of CR dye photodegradation after 4 h of UV irradiation in photoreactor ([3]; 5.0 wt. % added agent relative to sunscreen weight): 10 ± 1%
Structure (SMILES): O.O.O.O.O.O.O=C([O-])[O-].O=C([O-])[O-].O=C([O-])[O-].[Ce+3].[Ce+3] [Ce2(CO3)3·6H2O]
- toxicity to cells (cell shape, viability) (RBL-2H3 rat-cell line): generally non-toxic to the cells
